Assay results reported in patent US11135236B2, “Retinoic acid receptor gamma agonists to attenuate anthracycline-induced cardiotoxicity” (Northwestern University, priority 2018, dated 2021).

What was measured:
RARG-WT hiPSC-CMs = assay: hiPSC-CM cell viability after 72 h doxorubicin (CellTiter-Glo); type: cell-based, human
Experimental: (§1) 384-well plate-based cell viability, caspase 3/7 activity, and reactive oxygen species (ROS) assays. […] Luminescence was measured using a VarioSkan Lux Multi-Mode Reader (Thermo Scientific) with an integration time of 0.25 sec. 10 μM staurosporine (MedChemExpress) was used as a positive control. […] 10 μM staurosporine and 50 μM menadione (both MedChemExpress) was used as a positive control, respectively. Data were analyzed using Prism 7.0 software (GraphPad) using standard dose-response guidelines.

control hiPSC-CMs = assay: caspase 3 and 7 activity after 24 h doxorubicin (Caspase 3/7-Glo); type: cell-based, human
Experimental: as §1

MDA-MB-468 = assay: breast cancer cell viability after 72 h of doxorubicin and RARG agonists co-treatment; settings: MDA-MB-468, doxorubicin 72 h, Vehicle (no agonist)
hiPSC-CMs = assay: DNA damage by γH2AX staining; type: cell-based, human; settings: patient hiPSC-CMs, 24 h doxorubicin
Experimental: Immunofluorescent staining. hiPSCs were dissociated with 0.5 mM EDTA and plated onto Matrigel-coated Nunc Lab-Tek II 8-chamber slides in E8 medium for three days (E8Y for the first 24 h). Cells were fixed, permeabilized, and stained for POU5F1, SSEA4, SOX2, TRA-1-60 with the PSC 4-Marker Immunocytochemistry Kit (Invitrogen) according to manufacturer's instructions. Cardiomyocytes were dissociated with Liberase TH (as above) and plated onto Matrigel-coated No 1.5 coverslips as previously described and allowed to adhere and spread for 4 days. Cells were fixed with 4% paraformaldehyde (Electron Microscopy Services) in DPBS for 15 min at RT, permeabilized with 1% saponin (MilliporeSigma) in DPBS for 15 min at RT, blocked with 3% bovine serum albumin (BSA, MilliporeSigma) in DPBS for 30 min at RT, and stained overnight in 3% BSA/DPBS at 4° C. with 1:200 polyclonal rabbit IgG anti-TNNT2 (Abcam, ab45932), 1:500 monoclonal mouse IgG1 anti-ACTN2 (Sigma, A7811), 1:200 monoclonal rabbit IgG RARG (Abcam, ab187159), or 1:200 monoclonal mouse IgG1 γH2AX (MilliporeSigma, 05-636). […]
Flow cytometry-based DNA damage assay. […] Cells were analyzed using a CytoFLEX (Beckman Coulter) with CytExpert 2.0 software and Prism 7.0 software (GraphPad).

Hs 578T = assay: breast cancer cell viability after 72 h of doxorubicin and RARG agonists co-treatment; settings: doxorubicin 72 h, Vehicle (no agonist)
Experimental: as §1
Breast cancer cell lines. Four human breast cancer cell lines were used, MCF7 (adenocarcinoma, ATCC HTB-22) and Hs 578T (carcinsarcoma, ATCC HTB-126) both cultured in RPMI 1640 (Corning) with 10% FBS (Opti-Gold, GenDEPOT), MDA-MB-231 (adenocarcinoma, ATCC HTB-26) and MDA-MB-468 (adenocarcinoma, ATCC HTB-131) both cultured in DMEM (Corning) with 10% FBS. All cells were cultured on uncoated tissue culture plates (Greiner) and passaged with TrypLE Express (Gibco).

## COc1cccc2c1C(=O)c1c(O)c3c(c(O)c1C2=O)C[C@@](O)(C(=O)CO)C[C@@H]3O[C@H]1C[C@H](N)[C@H](O)[C@H](C)O1 [doxorubicin]
RARG-WT hiPSC-CMs
  LD50, cell viability: 2.061 µM
Control hiPSC-CMs
  LD50, caspase 3 and 7 activity: 2.078 µM
MDA-MB-468
  LD50: 1.330 µM
hiPSC-CMs
  DNA damage (γH2AX): concentration-dependent increase in DNA damage
Hs 578T
  LD50: 1.829 µM
